Legend:
Carbonic anhydrase 9 = Carbonic anhydrase 9 (Homo sapiens, UniProt Q16790); assay: Inhibition of human carbonic anhydrase 9 assessed as inhibition constant preincubated for 15 mins by phenol red dye based stopped flow CO2 hydration assay
MCF7 [1] = assay: cells; details: Homo sapiens, MCF7, 48 h
Description: Antiproliferative activity against human MCF7 cells assessed as inhibition of cell growth incubated for 48 hrs by WST-1 reagent based ELISA

HCT-116 = assay: cells; details: Homo sapiens, HCT-116, 48 h
Description: Antiproliferative activity against human HCT-116 cells assessed as inhibition of cell growth incubated for 48 hrs by WST-1 reagent based ELISA

[2] = biological target: Vascular endothelial growth factor receptor 2 (Homo sapiens, UniProt P35968); assay: Inhibition of VEGFR-2 (unknown origin) using biotinylated poly(Glu-Tyr) at 4:1 ratio as substrate in presence of ATP incubated for 5 mins by ELISA
MDA-MB-231 [3] = assay: cells; details: Homo sapiens, MDA-MB-231, 48 h
Description: Antiproliferative activity against human MDA-MB-231 cells assessed as inhibition of cell growth incubated for 48 hrs by MTT reagent based ELISA

MCF7 [4] = assay: cells; details: Homo sapiens, MCF7, 48 h; remark: listed apart in the source
Description: Antiproliferative activity against human MCF7 cells assessed as inhibition of cell growth incubated for 48 hrs by MTT reagent based ELISA

MDA-MB-231 [5] = assay: Induction of apoptosis in human MDA-MB-231 cells assessed as active caspase-3 protein level incubated for 24 hrs by ELISA; assay type: functional
MDA-MB-231 [6] = assay: Induction of apoptosis in human MDA-MB-231 cells assessed as Bax protein level incubated for 24 hrs by ELISA; assay type: functional
MDA-MB-231 [7] = assay: Induction of apoptosis in human MDA-MB-231 cells assessed as BCL-2 protein level incubated for 24 hrs by ELISA; assay type: functional
MDA-MB-231 [8] = assay: Induction of apoptosis in human MDA-MB-231 cells assessed as decrease in BCL-2 protein level incubated for 24 hrs by ELISA relative to control; assay type: functional; design: scale not given: the % may be the effect or the level left
Caco-2 = assay: cells; details: Homo sapiens, Caco-2, 24 h
Description: Antiproliferative activity against human Caco-2 cells assessed as inhibition of cell growth incubated for 24 hrs by MTS assay

Chain of Vascular endothelial growth factor receptor 2 (P35968 whole entry): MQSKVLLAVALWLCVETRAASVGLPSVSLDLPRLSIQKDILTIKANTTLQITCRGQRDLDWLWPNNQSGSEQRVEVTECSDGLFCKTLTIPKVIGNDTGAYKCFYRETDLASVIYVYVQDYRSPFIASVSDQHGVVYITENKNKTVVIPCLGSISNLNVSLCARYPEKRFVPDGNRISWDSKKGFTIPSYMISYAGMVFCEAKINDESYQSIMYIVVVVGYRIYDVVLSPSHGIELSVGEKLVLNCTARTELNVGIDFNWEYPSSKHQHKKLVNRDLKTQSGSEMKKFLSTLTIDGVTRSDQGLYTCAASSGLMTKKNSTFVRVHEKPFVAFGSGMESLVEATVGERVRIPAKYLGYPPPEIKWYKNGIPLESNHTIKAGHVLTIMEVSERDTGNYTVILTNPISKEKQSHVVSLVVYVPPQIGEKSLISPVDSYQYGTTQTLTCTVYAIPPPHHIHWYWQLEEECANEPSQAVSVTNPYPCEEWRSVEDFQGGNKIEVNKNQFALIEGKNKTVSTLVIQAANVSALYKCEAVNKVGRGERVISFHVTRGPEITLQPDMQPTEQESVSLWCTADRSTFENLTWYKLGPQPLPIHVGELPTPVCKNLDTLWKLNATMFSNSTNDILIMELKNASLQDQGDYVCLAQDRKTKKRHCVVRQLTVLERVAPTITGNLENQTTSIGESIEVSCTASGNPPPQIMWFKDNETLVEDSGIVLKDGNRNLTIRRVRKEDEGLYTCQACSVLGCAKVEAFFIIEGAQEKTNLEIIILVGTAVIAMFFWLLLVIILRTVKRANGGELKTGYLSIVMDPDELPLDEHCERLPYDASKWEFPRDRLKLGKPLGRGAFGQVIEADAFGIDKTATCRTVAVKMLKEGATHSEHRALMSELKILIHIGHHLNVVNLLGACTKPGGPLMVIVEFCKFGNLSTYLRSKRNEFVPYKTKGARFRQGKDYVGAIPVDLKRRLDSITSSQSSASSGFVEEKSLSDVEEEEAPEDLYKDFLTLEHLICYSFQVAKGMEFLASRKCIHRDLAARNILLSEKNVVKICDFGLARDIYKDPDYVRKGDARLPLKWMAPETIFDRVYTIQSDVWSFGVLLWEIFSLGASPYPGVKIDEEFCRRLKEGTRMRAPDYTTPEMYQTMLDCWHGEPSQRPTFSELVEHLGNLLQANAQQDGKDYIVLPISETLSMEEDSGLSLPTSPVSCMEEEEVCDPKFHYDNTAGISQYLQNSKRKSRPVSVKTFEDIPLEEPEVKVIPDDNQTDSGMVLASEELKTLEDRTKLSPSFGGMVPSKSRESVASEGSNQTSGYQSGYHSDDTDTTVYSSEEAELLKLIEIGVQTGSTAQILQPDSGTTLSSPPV

| SMILES | Ki (Carbonic anhydrase 9) | further results |
| --- | --- | --- |
| NS(=O)(=O)c1ccc(CC/N=C2\C(=O)Nc3ccc(Cl)cc32)cc1 | 28.7 nM | IC50 (MCF7 [1]): 23900 nM; IC50 (HCT-116): 3670 nM |
| CC(C(=O)Nc1ccc(S(N)(=O)=O)cc1)N1CCCC(C(=O)N/N=C2\C(=O)Nc3cc([N+](=O)[O-])ccc32)C1 (centres undefined) | 29.4 nM | – |
| COc1ccc2c(c1)NC(=O)C2=NNC(=O)C1CCCN(C(C)C(=O)Nc2ccc(S(N)(=O)=O)cc2)C1 (centres undefined) | 4.2 nM | IC50 [2]: 358 nM; IC50 (MDA-MB-231 [3]): 7200 nM; IC50 (MCF7 [4]): 11300 nM |
| NS(=O)(=O)c1ccc(NC(=O)CN2CCC(C(=O)NN=C3C(=O)Nc4ccc(Cl)cc43)CC2)cc1 | 14.3 nM | – |
| CC(C(=O)Nc1ccc(S(N)(=O)=O)cc1)N1CCCC(C(=O)N/N=C2\C(=O)Nc3cc(Br)ccc32)C1 (centres undefined) | 9.8 nM | – |
| CC(C(=O)Nc1ccc(S(N)(=O)=O)cc1)N1CCCC(C(=O)N/N=C2\C(=O)Nc3ccccc32)C1 (centres undefined) | 3.6 nM | Activity (MDA-MB-231 [5]): 509 pg/mL; IC50 [2]: 204 nM; Activity (MDA-MB-231 [6]): 265 pg/mL; Activity (MDA-MB-231 [7]): 3.31 ng/mL; Activity (MDA-MB-231 [8]): 76%; IC50 (MDA-MB-231 [3]): 4080 nM; IC50 (MCF7 [4]): 10000 nM |
| COc1ccc2c(c1)NC(=O)C2=NNC(=O)C1CCCN(CC(=O)Nc2ccc(S(N)(=O)=O)cc2)C1 (centres undefined) | 19 nM | – |
| NS(=O)(=O)c1ccc(NC(=O)CN2CCCC(C(=O)N/N=C3\C(=O)Nc4cc(Br)ccc43)C2)cc1 (centres undefined) | 65.9 nM | – |
| NS(=O)(=O)c1ccc(NC(=O)CN2CCCC(C(=O)N/N=C3\C(=O)Nc4ccccc43)C2)cc1 (centres undefined) | 52.8 nM | – |
| Cc1ccc2c(c1)NC(=O)/C2=N\NC(=O)C1CCCN(CC(=O)Nc2ccc(S(N)(=O)=O)cc2)C1 (centres undefined) | 15.8 nM | – |
| CN1C(=O)/C(=N\NC(=O)C2CCCN(CC(=O)Nc3ccc(S(N)(=O)=O)cc3)C2)c2ccccc21 (centres undefined) | 33.5 nM | – |
| CC(C(=O)Nc1ccc(S(N)(=O)=O)cc1)N1CCCC(C(=O)N/N=C2\C(=O)Nc3cc(F)ccc32)C1 (centres undefined) | 5.1 nM | – |
| CC(C(=O)Nc1ccc(S(N)(=O)=O)cc1)N1CCCC(C(=O)N/N=C2\C(=O)N(Cc3ccc(F)cc3)c3ccccc32)C1 (centres undefined) | 9.8 nM | – |
| NS(=O)(=O)c1ccc(NC(=O)CN2CCC(C(=O)N/N=C3\C(=O)N(Cc4ccccc4)c4ccccc43)CC2)cc1 | 12.8 nM | – |
| NS(=O)(=O)c1ccc(NC(=O)CN2CCC(C(=O)NN=C3C(=O)Nc4ccccc43)CC2)cc1 | 24.8 nM | – |
| NS(=O)(=O)c1ccc(NC(=O)CN2CCC(C(=O)N/N=C3\C(=O)Nc4ccc(F)cc43)CC2)cc1 | 6.2 nM | IC50 [2]: 811 nM; IC50 (MDA-MB-231 [3]): 18900 nM; IC50 (MCF7 [4]): 29300 nM |
| NS(=O)(=O)c1ccc(NC(=O)CN2CCCC(C(=O)N/N=C3\C(=O)Nc4cc(Cl)ccc43)C2)cc1 (centres undefined) | 22.1 nM | – |
| NS(=O)(=O)c1ccc(NC(=O)CN2CCCC(C(=O)NN=C3C(=O)Nc4cc(F)ccc43)C2)cc1 (centres undefined) | 35.4 nM | – |
| O=C(CN1C(=O)S/C(=C2/C(=O)Nc3ccccc32)C1=O)Nc1ccccc1 | – | IC50 (Caco-2): 9300 nM |
| NS(=O)(=O)c1ccc(NC(=O)CN2CCC(C(=O)NN=C3C(=O)Nc4ccc(Br)cc43)CC2)cc1 | 27.9 nM | – |
| NS(=O)(=O)c1ccc(NC(=O)CN2CCCC(C(=O)N/N=C3\C(=O)N(Cc4ccccc4)c4ccccc43)C2)cc1 (centres undefined) | 21.4 nM | – |
| CC(C(=O)Nc1ccc(S(N)(=O)=O)cc1)N1CCCC(C(=O)N/N=C2\C(=O)N(Cc3ccc(Cl)cc3)c3ccccc32)C1 (centres undefined) | 19.2 nM | – |
| O=c1[nH]cc(F)c(=O)[nH]1 [FLUOROURACIL] | – | IC50 (MDA-MB-231 [3]): 8700 nM; IC50 (MCF7 [4]): 5170 nM |
